Patent publication US9771327B2, “Compounds and methods for the treatment of cystic fibrosis” (FLATLEY DISCOVERY LAB, LLC, priority 2013, dated 2017)

Target: T1, human ΔF508-CFTR (Homo sapiens, UniProt P13569, DEL508-508)
T1 construct: expressed in transfected cells
Test: CFTR-YFP high throughput assay, CFTR corrector protocol (YFP iodide flux quench)
Assay type: cell-based
Conditions: FRT cells expressing human ΔF508-CFTR and YFP-H148Q/I152L, 24-26 h incubation with compound; for Emax: normalized to the positive control, read-out: EMAX (% Efficacy, EMAX normalized to the positive control); for EC50: stimulated with 20 μM Forskolin & 30 μM P3
Method: Assays for Detecting and Measuring the Effect of Compounds on dF508-CFTR Channels CFRT-YFP High Throughput Assay-CFTR Corrector Protocol:
This protocol is designed to selectively screen small molecule compounds for F508del CFTR corrector activities in the HTS YFP flux assay. In this protocol, the cells are incubated with testing compounds for 24 hours, washed with PBS, stimulated with forskolin and a standard potentiator, and read on a 384-well HTS plate reader, such as the Hamamatsu FDDD-6000.
YFP fluorescence intensity is acquired at high speed before and after iodide buffer is injected to the assay cells. Iodide enters the cells via active CFTR channels in the plasma membrane, and quenches the YFP fluorescence. The rate of fluorescence quenching is proportionally related to the total CFTR activities in the cell membrane. dF508-CFTR corrector accelerates YFP quenching by increasing the number of CFTR molecules in the testing cell plasma membrane.
This method was initially developed for bench top plate readers (Galietta et al., 2001), and was adapted to the HTS format (Sui et al. Assay Drug Dev. Technol. 2010).
Fisher Rat Thyroid (FRT) cells stably expressing both human ΔF508-CFTR and a halide-sensitive yellow fluorescent protein (YFP-H148Q/I152L 25,22) (Galietta et al., Am. J. Physiol Cell Physiol, 281(5), C1734, 2001) were cultured on plastic surface in Coon's modified Ham's F12 medium supplemented with FBS 10%, L-glutamine 2 mM, penicillin 100 U/ml, and streptomycin 100 μg/ml. G418 (0.75-1.0 mg/ml) and zeocin (3.2 ug/ml) were used for selection of FRT cells expressing ΔF508-CFTR and YFP. For primary screening, FRT cells were plated into 384-well black wall, transparent bottom microtiter plates (Costar; Corning Inc.) at a cell density of 20,000-40,000 per well. Test compound was applied to the cells at varying concentrations ranging from 2 nM-[…] in either a 2-fold or 3-fold dilution series. Cells were incubated in a cell culture incubator at 37° C. with 5% CO2 for 24-26 h. Assay plates were washed with DPBS media (Thermo, cat #SH30028.02) to remove unbound cells and compound. Stimulation media (25 μL) containing 20 μM Forskolin & 30 μM P3 [6-(Ethyl-phenyl-sulfonyl)-4-oxo-1,4-dihydro-quinoline-3-carboxylic acid 2-methoxy-benzylamide] in Hams F-12 coon's modified media was added to the plate wells and incubated at room temperature for 60-120 min. 25 μL of HEPES-PBS -I buffer (10 mM HEPES, 1 mM MgCl2, 3 mM KCl, 1 mM CaCl2, 150 mM NaI) was then added and fluorescence quench curves (Excitation 500 nm/Emission 540 nm; exposure 136 ms) were immediately recorded on an FDSS-6000 plate reader (Hamamatsu). Quench rates were derived from least squares fitting of the data as described by Sui et al. (2010).

T1 sequence (P13569 with tags, fused parts or gaps DEL508-508): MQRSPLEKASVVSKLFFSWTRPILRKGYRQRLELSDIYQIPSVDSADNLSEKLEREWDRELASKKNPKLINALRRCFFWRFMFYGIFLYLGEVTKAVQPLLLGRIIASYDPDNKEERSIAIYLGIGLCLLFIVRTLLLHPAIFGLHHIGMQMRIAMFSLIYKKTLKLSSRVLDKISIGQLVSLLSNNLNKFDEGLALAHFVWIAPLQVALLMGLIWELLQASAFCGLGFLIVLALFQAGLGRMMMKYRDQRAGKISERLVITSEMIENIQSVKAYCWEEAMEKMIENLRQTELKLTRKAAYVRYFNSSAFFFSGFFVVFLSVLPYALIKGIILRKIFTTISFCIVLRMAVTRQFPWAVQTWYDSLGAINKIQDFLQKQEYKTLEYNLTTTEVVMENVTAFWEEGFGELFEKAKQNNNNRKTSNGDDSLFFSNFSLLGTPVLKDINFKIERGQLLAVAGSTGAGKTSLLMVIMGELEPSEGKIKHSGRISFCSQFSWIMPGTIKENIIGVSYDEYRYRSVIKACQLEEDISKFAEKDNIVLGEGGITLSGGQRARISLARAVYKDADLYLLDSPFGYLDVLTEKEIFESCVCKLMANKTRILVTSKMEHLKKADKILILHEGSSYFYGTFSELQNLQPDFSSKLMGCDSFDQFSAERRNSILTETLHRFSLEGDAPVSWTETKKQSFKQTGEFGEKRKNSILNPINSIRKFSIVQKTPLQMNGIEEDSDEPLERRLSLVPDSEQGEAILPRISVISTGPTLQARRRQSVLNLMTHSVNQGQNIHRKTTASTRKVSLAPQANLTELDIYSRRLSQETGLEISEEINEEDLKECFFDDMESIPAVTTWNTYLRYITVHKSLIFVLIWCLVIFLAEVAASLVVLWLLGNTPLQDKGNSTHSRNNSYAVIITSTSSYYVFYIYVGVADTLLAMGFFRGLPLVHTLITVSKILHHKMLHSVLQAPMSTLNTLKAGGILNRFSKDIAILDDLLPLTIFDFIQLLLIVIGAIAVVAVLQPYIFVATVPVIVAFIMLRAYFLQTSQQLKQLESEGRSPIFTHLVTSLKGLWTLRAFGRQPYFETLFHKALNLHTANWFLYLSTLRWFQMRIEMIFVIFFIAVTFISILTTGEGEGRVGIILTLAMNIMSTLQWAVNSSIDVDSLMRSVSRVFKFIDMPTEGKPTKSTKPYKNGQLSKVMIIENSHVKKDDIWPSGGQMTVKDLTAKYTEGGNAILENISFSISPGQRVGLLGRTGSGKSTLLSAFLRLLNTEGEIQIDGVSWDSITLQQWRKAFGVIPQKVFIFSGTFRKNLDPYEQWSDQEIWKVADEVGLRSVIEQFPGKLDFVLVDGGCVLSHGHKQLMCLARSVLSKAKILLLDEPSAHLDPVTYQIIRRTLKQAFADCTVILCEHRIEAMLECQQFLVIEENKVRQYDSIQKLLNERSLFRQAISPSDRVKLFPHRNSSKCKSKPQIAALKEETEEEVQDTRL

Compound | Emax | EC50
COc1ccc(S(=O)(=O)N2CCC(n3c(-c4ccccc4)nc4cccnc43)CC2)cc1F [Example 18] | 30 to 80% | < 10 µM
COc1ccc(S(=O)(=O)N2CCC(n3c(-c4cccc(Cl)c4)nc4cccnc43)CC2)cc1Cl [Example 22] | 30 to 80% | < 10 µM
Cc1ccc(S(=O)(=O)N2CCC(n3c(-c4ccccc4)nc4cccnc43)CC2)cc1 [Example 17] | 30 to 80% | < 10 µM
Cc1ccc2nc(-c3ccncc3Cl)n(C3CCN(S(=O)(=O)c4ccc5c(c4)OC(F)(F)O5)CC3)c2n1 [Example 13, 2-(3-Chloropyridin-4-yl)-3-(1-((2,2-difluorobenzo[d][1,3]dioxol-5-yl)sulfonyl)piperidin-4-yl)-5-methyl-3H-imidazo[4,5-b]pyridine] | 30 to 80% | < 10 µM
Cc1ccc2nc(-c3ccccc3Cl)n(C3CCN(S(=O)(=O)c4ccc(C)c(Cl)c4)CC3)c2n1 [Example 7, 3-(1-((3-Chloro-4-methylphenyl)sulfonyl)piperidin-4-yl)-2-(2-chlorophenyl)-5-methyl-3H-imidazo[4,5-b]pyridine] | 30 to 80% | < 10 µM
COc1ccc(S(=O)(=O)N2CCC(n3c(-c4cccc(C)c4)nc4cccnc43)CC2)cc1Cl [Example 23] | > 80% | < 10 µM
COc1ccc(S(=O)(=O)N2CCC(n3c(-c4ccccc4)nc4ccc(Cl)nc43)CC2)cc1Cl [Example 36] | 10 to 30% | < 10 µM
COc1ccc(S(=O)(=O)N2CCC(n3c(-c4cccnc4)nc4cccnc43)CC2)cc1Cl [Example 27] | 30 to 80% | < 10 µM
COc1ccc(S(=O)(=O)N2CCC(n3c(-c4ccccc4)nc4cc(Cl)cnc43)CC2)cc1Cl [Example 35] | 30 to 80% | < 10 µM
COc1ccc(S(=O)(=O)N2CCC(n3c(-c4ccc(C)cc4)nc4cccnc43)CC2)cc1Cl [Example 24] | 30 to 80% | < 10 µM
COc1ccc(S(=O)(=O)N2CCC(n3c(-c4ccc5[nH]cnc5c4)nc4cccnc43)CC2)cc1Cl [Example 34] | 30 to 80% | < 10 µM
O=S(=O)(c1ccc2c(c1)OCO2)N1CCC(n2c(-c3ccccc3)nc3cccnc32)CC1 [Example 5, 3-(1-(Benzo[d][1,3]dioxol-5-ylsulfonyl)piperidin-4-yl)-2-phenyl-3H-imidazo[4,5-b]pyridine] | 30 to 80% | < 10 µM
Cc1ccc(S(=O)(=O)N2CCC(n3c(-c4ccccc4)nc4cccnc43)CC2)cc1Cl [Example 20] | 30 to 80% | < 10 µM
COc1ccc(S(=O)(=O)N2CCC(n3c(-c4ccccc4)nc4ccc(C)nc43)CC2)cc1Cl [Example 3, 3-(1-((3-Chloro-4-methoxyphenyl)sulfonyl)piperidin-4-yl)-5-methyl-2-phenyl-3H-imidazo[4,5-b]pyridine] | 30 to 80% | < 10 µM
COc1cc(S(=O)(=O)N2CCC(n3c(-c4ccccc4)nc4cccnc43)CC2)ccc1Cl [Example 37] | 30 to 80% | < 10 µM
COc1ccc(S(=O)(=O)N2CCC(n3c(C4CCCC4)nc4cccnc43)CC2)cc1Cl [Example 25] | 30 to 80% | < 10 µM
Cc1ccc2nc(-c3cccnc3Cl)n(C3CCN(S(=O)(=O)c4ccc5c(c4)OC(F)(F)O5)CC3)c2n1 [Example 15, 2-(2-Chloropyridin-3-yl)-3-(1-((2,2-difluorobenzo[d][1,3]dioxol-5-yl)sulfonyl)piperidin-4-yl)-5-methyl-3H-imidazo[4,5-b]pyridine] | 30 to 80% | < 10 µM

Compound | Emax | EC50
Cc1ccc2nc(-c3ccccc3Cl)n(C3CCN(S(=O)(=O)c4ccc5c(c4)OCO5)CC3)c2n1 [Example 2] | 30 to 80% | < 10 µM
COc1ccc(S(=O)(=O)N2CCC(n3c(-c4ccccc4)nc4cc(C)cnc43)CC2)cc1Cl [Example 26] | 30 to 80% | < 10 µM
COc1ccc(S(=O)(=O)N2CCC(n3c(-c4ccccc4Cl)nc4cccnc43)CC2)cc1Cl [Example 6, 3-(1-((3-Chloro-4-methoxyphenyl)sulfonyl)piperidin-4-yl)-2-(2-chlorophenyl)-3H-imidazo[4,5-b]pyridine] | 30 to 80% | < 10 µM
COc1ccc(S(=O)(=O)N2CCC(n3c(-c4ccccc4C)nc4cccnc43)CC2)cc1Cl [Example 30] | 30 to 80% | < 10 µM
COc1ccc(S(=O)(=O)N2CCC(n3c(-c4ccccc4F)nc4cccnc43)CC2)cc1Cl [Example 11, 3-(1-((3-Chloro-4-methoxyphenyl)sulfonyl)piperidin-4-yl)-2-(2-fluorophenyl)-3H-imidazo[4,5-b]pyridine] | 30 to 80% | < 10 µM
COc1ccc(S(=O)(=O)N2CCC(n3c(-c4ccncc4)nc4cccnc43)CC2)cc1Cl [Example 28] | 30 to 80% | < 10 µM
Cc1ccc(S(=O)(=O)N2CCC(n3c(-c4ccccc4Cl)nc4cccnc43)CC2)cc1Cl [Example 10, 3-(1-((3-Chloro-4-methylphenyl)sulfonyl)piperidin-4-yl)-2-(2-chlorophenyl)-3H-imidazo[4,5-b]pyridine] | 30 to 80% | < 10 µM
O=S(=O)(c1ccc2c(c1)OCO2)N1CCC(n2c(-c3ccccc3Cl)nc3cccnc32)CC1 [Example 1, 3-(1-(Benzo[d][1,3]dioxol-5-ylsulfonyl)piperidin-4-yl)-2-(2-chlorophenyl)-3H-imidazo[4,5-b]pyridine] | 30 to 80% | < 10 µM
COc1ccc(S(=O)(=O)N2CCC(n3c(-c4cnc[nH]4)nc4cccnc43)CC2)cc1Cl [Example 32] | 30 to 80% | > 20 µM
COc1ccc(C(=O)N2CCC(n3c(-c4ccccc4)nc4cccnc43)CC2)cc1Cl [Example 21] | 10 to 30% | > 20 µM
COc1ccc(S(=O)(=O)N2CCC(n3c(-c4ccccc4Cl)nc4ccc(C)nc43)CC2)cc1F [Example 8, 2-(2-Chlorophenyl)-3-(1-((3-fluoro-4-methyoxyphenyl)sulfonyl)piperidin-4-yl)-5-methyl-3H-imidazo[4,5-b]pyridine] | 30 to 80% | < 10 µM
Cc1ccc2nc(-c3ccncc3Cl)n(C3CCN(S(=O)(=O)c4ccc5c(c4)OCO5)CC3)c2n1 [Example 14, 3-(1-(Benzo[d][1,3]dioxol-5-ylsulfonyl)piperidin-4-yl)-2-(3-chloropyridin-4-yl)-5-methyl-3H-imidazo[4,5-b]pyridine] | 10 to 30% | > 20 µM
COc1ccc(S(=O)(=O)N2CCC(n3c(-c4ccccc4)nc4cccnc43)CC2)cc1Cl [Example 16] | > 80% | 10 to 20 µM
COc1ccc(S(=O)(=O)N2CCC(n3c(-c4ccccc4O)nc4cccnc43)CC2)cc1Cl [Example 9, 2-(3-(1-((3-Chloro-4-methoxyphenyl)sulfonyl)piperidin-4-yl)-3H-imidazo[4,5-b]pyridin-2-yl)phenol] | 30 to 80% | < 10 µM
COc1ccc(S(=O)(=O)N2CCC(n3c(-c4ccccc4)nc4cccnc43)CC2)cc1 [Example 19] | 30 to 80% | < 10 µM
COc1ccc(S(=O)(=O)N2CCC(n3c(-c4nc5ccccc5[nH]4)nc4cccnc43)CC2)cc1Cl [Example 33] | 30 to 80% | 10 to 20 µM
